Measured values reported in ChEMBL document CHEMBL1201861, “Genomics of Drug Sensitity in Cancer screening data, Wellcome Trust Sanger Institute”.

Tests used:
Test in all cases: cells
[1] = system: GR-ST; type: functional, cell-based; conditions: Homo sapiens
Description: SANGER: Inhibition of human GR-ST cell growth in a cell viability assay.

[2] = system: EW-13; type: functional, cell-based; conditions: Homo sapiens;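 note: growth inhibition of EW-13 cells, read out with a cell viability assay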
Description: SANGER: Inhibition of human EW-13 cell growth in a cell viability assay.

[3] = system: KYSE-270; type: functional, cell-based, Homo sapiens; conditions: Homo sapiens, KYSE-270;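 note: cell growth inhibition measured with a viability assay in the human KYSE-270 line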
Description: SANGER: Inhibition of human KYSE-270 cell growth in a cell viability assay.

[4] = system: MMAC-SF; type: functional, cell-based, Homo sapiens; conditions: Homo sapiens, MMAC-SF;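 note: growth inhibition of human MMAC-SF cells, read out with a cell viability assay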
Description: SANGER: Inhibition of human MMAC-SF cell growth in a cell viability assay.

[5] = system: TE-8; type: functional, cell-based, Homo sapiens; conditions: Homo sapiens, TE-8;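 note: growth inhibition of TE-8 cells, measured with a cell viability readout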
Description: SANGER: Inhibition of human TE-8 cell growth in a cell viability assay.

[6] = system: ES3; type: functional, cell-based, Homo sapiens; conditions: Homo sapiens, ES3;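 note: growth inhibition of ES3 cells, read out with a cell viability assay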
Description: SANGER: Inhibition of human ES3 cell growth in a cell viability assay.

[7] = system: HuCCT-1; type: functional, cell-based, Homo sapiens, HuCCT1; conditions: Homo sapiens, HuCCT-1;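 note: growth inhibition of HuCCT-1 cells, read out by a cell viability assay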
Description: SANGER: Inhibition of human HuCCT1 cell growth in a cell viability assay.

[8] = system: T84; type: functional, cell-based, Homo sapiens; conditions: Homo sapiens, T84;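 note: growth inhibition measured with a cell viability readout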
Description: SANGER: Inhibition of human T84 cell growth in a cell viability assay.

[9] = system: SCC-15; type: functional, cell-based, Homo sapiens; conditions: Homo sapiens, SCC-15;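 note: growth inhibition of SCC-15 cells, read out with a cell viability assay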
Description: SANGER: Inhibition of human SCC-15 cell growth in a cell viability assay.

[10] = system: NCI-N87; type: functional, cell-based, Homo sapiens; conditions: Homo sapiens, NCI-N87;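 note: growth inhibition of human NCI-N87 cells, read out with a cell viability assay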
Description: SANGER: Inhibition of human NCI-N87 cell growth in a cell viability assay.

[11] = system: NCI-H1092; type: functional, cell-based; conditions: Homo sapiens;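 note: cell growth inhibition measured with a cell viability assay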
Description: SANGER: Inhibition of human NCI-H1092 cell growth in a cell viability assay.

[12] = system: MHH-NB-11; type: functional, cell-based, Homo sapiens; conditions: Homo sapiens, MHH-NB-11;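 note: growth inhibition of human MHH-NB-11 cells, read out by a cell viability assay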
Description: SANGER: Inhibition of human MHH-NB-11 cell growth in a cell viability assay.

[13] = system: NCI-H1299; type: functional, cell-based, Homo sapiens; conditions: Homo sapiens, NCI-H1299;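 note: growth inhibition of human NCI-H1299 cells, read out by a cell viability assay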
Description: SANGER: Inhibition of human NCI-H1299 cell growth in a cell viability assay.

[14] = system: RO82-W-1; type: functional, cell-based, Homo sapiens; conditions: Homo sapiens, RO82-W-1;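 note: growth inhibition of human RO82-W-1 cells, measured with a cell viability assay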
Description: SANGER: Inhibition of human RO82-W-1 cell growth in a cell viability assay.

[15] = system: P12-Ichikawa; type: functional, cell-based; conditions: Homo sapiens
[16] = system: SKG-IIIa; type: functional, cell-based, Homo sapiens; conditions: Homo sapiens, SKG-IIIa;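 note: cell growth inhibition, read out with a cell viability assay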
Description: SANGER: Inhibition of human SKG-IIIa cell growth in a cell viability assay.

[17] = system: CAS-1; type: functional, cell-based, Homo sapiens; conditions: Homo sapiens, CAS-1;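 note: growth inhibition of CAS-1 cells, measured with a cell viability assay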
Description: SANGER: Inhibition of human CAS-1 cell growth in a cell viability assay.

[18] = system: HC-1; type: functional, cell-based; conditions: Homo sapiens;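 note: growth inhibition of HC-1 cells measured by a cell viability assay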
Description: SANGER: Inhibition of human HC-1 cell growth in a cell viability assay.

[19] = system: KP-N-YS; type: functional, cell-based; conditions: Homo sapiens;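 note: cell viability assay measuring inhibition of cell line growth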
Description: SANGER: Inhibition of human KP-N-YS cell growth in a cell viability assay.

[20] = system: SK-N-DZ; type: functional, cell-based, Homo sapiens; conditions: Homo sapiens, SK-N-DZ;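 note: growth inhibition of the cancer cell line, read out through a viability assay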
Description: SANGER: Inhibition of human SK-N-DZ cell growth in a cell viability assay.

[21] = system: HPAF-II; type: functional, cell-based, Homo sapiens; conditions: Homo sapiens, HPAF-II;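 note: growth inhibition of HPAF-II cells, read out with a cell viability assay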
Description: SANGER: Inhibition of human HPAF-II cell growth in a cell viability assay.

[22] = system: NCI-H2452; type: functional, cell-based, Homo sapiens; conditions: Homo sapiens, NCI-H2452;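 note: growth inhibition of NCI-H2452 cells, read out with a cell viability assay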
Description: SANGER: Inhibition of human NCI-H2452 cell growth in a cell viability assay.

[23] = system: SCC-4; type: functional, cell-based, Homo sapiens; conditions: Homo sapiens, SCC-4;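 note: growth inhibition of human SCC-4 cells, read out as cell viability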
Description: SANGER: Inhibition of human SCC-4 cell growth in a cell viability assay.

[24] = system: 697; type: functional, cell-based; conditions: Homo sapiens
Description: SANGER: Inhibition of human 697 cell growth in a cell viability assay.

[25] = system: OAW-28; type: functional, cell-based, Homo sapiens; conditions: Homo sapiens, OAW-28;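 note: growth inhibition of OAW-28 cells, read out with a cell viability assay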
Description: SANGER: Inhibition of human OAW-28 cell growth in a cell viability assay.

[26] = system: CAL-120; type: functional, cell-based, Homo sapiens; conditions: Homo sapiens, CAL-120;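 note: cell growth inhibition, read out as cell viability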
Description: SANGER: Inhibition of human CAL-120 cell growth in a cell viability assay.

[27] = system: SBC-1; type: functional, cell-based; conditions: Homo sapiens;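 note: cell viability assay measuring growth inhibition of the SBC-1 cell line, IC50 being the concentration that halves growth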
Description: SANGER: Inhibition of human SBC-1 cell growth in a cell viability assay.

[28] = system: MKN-1; type: functional, cell-based, Homo sapiens; conditions: Homo sapiens, MKN-1;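 note: growth inhibition of human MKN1 cells, read out by a cell viability measurement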
Description: SANGER: Inhibition of human MKN1 cell growth in a cell viability assay.

[29] = system: CHL-1; type: functional, cell-based, Homo sapiens; conditions: Homo sapiens, CHL-1;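 note: cell growth inhibition, read out with a cell viability assay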
Description: SANGER: Inhibition of human CHL-1 cell growth in a cell viability assay.

[30] = system: TE-6; type: functional, cell-based, Homo sapiens; conditions: Homo sapiens, TE-6;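 note: growth inhibition of TE-6 cells, read out with a cell viability assay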
Description: SANGER: Inhibition of human TE-6 cell growth in a cell viability assay.

[31] = system: MDA-MB-231; type: functional, cell-based, Homo sapiens; conditions: Homo sapiens, MDA-MB-231
Description: SANGER: Inhibition of human MDA-MB-231 cell growth in a cell viability assay.

[32] = system: GT3TKB; type: functional, cell-based, Homo sapiens; conditions: Homo sapiens, GT3TKB;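 note: growth inhibition of the cell line, read out with a cell viability assay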
Description: SANGER: Inhibition of human GT3TKB cell growth in a cell viability assay.

[33] = system: HCC1395; type: functional, cell-based, Homo sapiens; conditions: Homo sapiens, HCC1395;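 note: growth inhibition of HCC1395 cells, read out by a cell viability assay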
Description: SANGER: Inhibition of human HCC1395 cell growth in a cell viability assay.

[34] = system: GCIY; type: functional, cell-based, Homo sapiens; conditions: Homo sapiens, GCIY;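 note: growth inhibition of the human GCIY cell line, read out by a cell viability assay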
Description: SANGER: Inhibition of human GCIY cell growth in a cell viability assay.

[35] = system: GOTO; type: functional, cell-based, Homo sapiens; conditions: Homo sapiens, GOTO;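 note: growth inhibition of GOTO cells, read out by a cell viability assay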
Description: SANGER: Inhibition of human GOTO cell growth in a cell viability assay.

[36] = system: HCC1937; type: functional, cell-based, Homo sapiens; conditions: Homo sapiens, HCC1937;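 note: growth inhibition measured with a cell viability read-out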
Description: SANGER: Inhibition of human HCC1937 cell growth in a cell viability assay.

[37] = system: RS4-11; type: functional, cell-based; conditions: Homo sapiens;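 note: growth inhibition of RS4-11 cells, read out by a cell viability assay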
Description: SANGER: Inhibition of human RS4-11 cell growth in a cell viability assay.

[38] = system: GB-1; type: functional, cell-based, Homo sapiens; conditions: Homo sapiens, GB-1;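 note: growth of GB-1 cells judged by a viability assay, IC50 marks the concentration inhibiting growth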
Description: SANGER: Inhibition of human GB-1 cell growth in a cell viability assay.

[39] = system: U-266; type: functional, cell-based; conditions: Homo sapiens
Description: SANGER: Inhibition of human U-266 cell growth in a cell viability assay.

[40] = system: NCI-H661; type: functional, cell-based, Homo sapiens; conditions: Homo sapiens, NCI-H661;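 note: cell viability assay read-out, IC50 being the concentration that inhibits growth of the cells by half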
Description: SANGER: Inhibition of human NCI-H661 cell growth in a cell viability assay.

[41] = system: SW982; type: functional, cell-based; conditions: Homo sapiens;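 note: growth inhibition of SW982 cells, read out with a cell viability assay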
Description: SANGER: Inhibition of human SW982 cell growth in a cell viability assay.

[42] = system: 769-P; type: functional, cell-based, Homo sapiens; conditions: Homo sapiens, 769-P
Description: SANGER: Inhibition of human 769-P cell growth in a cell viability assay.

[43] = system: HuP-T4; type: functional, cell-based, Homo sapiens; conditions: Homo sapiens, HuP-T4;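 note: cell viability assay measuring how much HuP-T4 cell growth is inhibited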
Description: SANGER: Inhibition of human HuP-T4 cell growth in a cell viability assay.

[44] = system: HCC1419; type: functional, cell-based, Homo sapiens; conditions: Homo sapiens, HCC1419;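 note: growth inhibition of human HCC1419 cells, read out as cell viability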
Description: SANGER: Inhibition of human HCC1419 cell growth in a cell viability assay.

[45] = system: CAL-39; type: functional, cell-based, Homo sapiens; conditions: Homo sapiens, CAL-39;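 note: cell viability assay measuring growth inhibition of CAL-39 cells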
Description: SANGER: Inhibition of human CAL-39 cell growth in a cell viability assay.

[46] = system: OVCAR-5; type: functional, cell-based, Homo sapiens; conditions: Homo sapiens, OVCAR-5;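 note: growth inhibition of human OVCAR-5 cells, read out with a cell viability assay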
Description: SANGER: Inhibition of human OVCAR-5 cell growth in a cell viability assay.

[47] = system: KYSE-140; type: functional, cell-based, Homo sapiens; conditions: Homo sapiens, KYSE-140;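 note: cell viability assay measuring growth inhibition in human KYSE-140 cells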
Description: SANGER: Inhibition of human KYSE-140 cell growth in a cell viability assay.

[48] = system: COLO-680N; type: functional, cell-based, Homo sapiens; conditions: Homo sapiens, COLO-680N;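 note: cell viability assay used to measure inhibition of COLO-680N cell growth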
Description: SANGER: Inhibition of human COLO-680N cell growth in a cell viability assay.

[49] = system: MS-1; type: functional, cell-based; conditions: Homo sapiens;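 note: growth inhibition of MS-1 cells, read out by cell viability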
Description: SANGER: Inhibition of human MS-1 cell growth in a cell viability assay.

[50] = system: SBC-5; type: functional, cell-based, Homo sapiens; conditions: Homo sapiens, SBC-5;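 note: cell viability assay read-out, IC50 is the concentration that inhibits growth of the cells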
Description: SANGER: Inhibition of human SBC-5 cell growth in a cell viability assay.

[51] = system: A2058; type: functional, cell-based; conditions: Homo sapiens;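 note: reduction of A2058 cell growth, read out with a viability assay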
Description: SANGER: Inhibition of human A2058 cell growth in a cell viability assay.

[52] = system: PFSK-1; type: functional, cell-based, Homo sapiens; conditions: Homo sapiens, PFSK-1;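 note: cell viability assay measuring how strongly compounds suppress growth of human PFSK-1 cells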
Description: SANGER: Inhibition of human PFSK-1 cell growth in a cell viability assay.

Measured: IC50

Cc1cnc(-c2cnc(NCCNc3ccc(C#N)cn3)nc2-c2ccc(Cl)cc2Cl)[nH]1 [LADUVIGLUSIB]
1950 nM: [37]
1780 nM: [33]
585 nM: [42]
214 nM: [41]
> 2560 nM: all other assays above

C[C@]1(O)C[C@@H](c2nc(-c3ccc4ccc(-c5ccccc5)nc4c3)c3c(N)nccn32)C1 [LINSITINIB]
1310 nM: [5]
1210 nM: [8]
338 nM: [37]
237 nM: [20]
1120 nM: [6]
> 2560 nM: all other assays above
